# Data taken from publication PMC5434977 (Analytical chemistry, 2016).
# Where two headings read alike, the source gives them in different places.
# Legend:
# ecMTAN = conditions: substrate MTA, ref [20],[28],[29]; cited from earlier work
# hsMTAP [1] = target: T1, hsMTAP (Homo sapiens, UniProt Q13126); conditions: substrate MTA, ref [20],[28],[29]; cited from earlier work
# T1 sequence (Q13126 1-283): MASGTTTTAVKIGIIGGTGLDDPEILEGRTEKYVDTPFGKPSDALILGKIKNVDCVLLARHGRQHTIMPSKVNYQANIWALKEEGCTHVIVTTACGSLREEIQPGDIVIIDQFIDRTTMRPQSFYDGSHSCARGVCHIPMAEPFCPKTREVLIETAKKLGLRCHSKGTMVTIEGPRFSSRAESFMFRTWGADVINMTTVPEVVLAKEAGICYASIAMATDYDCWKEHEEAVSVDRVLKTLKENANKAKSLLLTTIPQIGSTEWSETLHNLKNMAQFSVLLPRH
# hpMTAN [2] = target: T2, hpMTAN (Helicobacter pylori, UniProt Q9ZMY2); conditions: substrate MTA, ref [20],[28],[29]; cited from earlier work
# T2 sequence (Q9ZMY2 1-230): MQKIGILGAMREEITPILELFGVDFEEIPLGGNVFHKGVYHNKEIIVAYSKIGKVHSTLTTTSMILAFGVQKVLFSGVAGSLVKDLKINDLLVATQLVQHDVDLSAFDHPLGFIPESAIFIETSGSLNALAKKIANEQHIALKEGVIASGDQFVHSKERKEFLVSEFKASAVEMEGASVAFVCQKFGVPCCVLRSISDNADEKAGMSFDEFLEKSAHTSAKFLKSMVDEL
# [3] = tested on: Saccharomyces cerevisiae adenine phosphoribosyltransferase (scAPRTase); test: 2,6-diaminopurine fluorescence assay of scAPRTase; assay type: biochemical; conditions: 1 mM PRPP
# hpMTAN [4] = target: T2, hpMTAN; test: Ki* by 2AMTA fluorescence-based assay, Morrison fit, hpMTAN; assay type: biochemical; conditions: read-out: Ki∗ measured, 1–3 mM 2AMTA as substrate, slow-onset tight-binding, Morrison equation
# hpMTAN [5] = target: T2, hpMTAN; conditions: read-out: Ki∗ literature, ref [21],[22]; cited from earlier work
# hsMTAP [6] = target: T1, hsMTAP; test: Ki* by 2AMTA fluorescence-based assay, Morrison fit, hsMTAP; assay type: biochemical; conditions: read-out: Ki∗ measured, 1–3 mM 2AMTA as substrate, slow-onset tight-binding, Morrison equation
# hsMTAP [7] = target: T1, hsMTAP; conditions: read-out: Ki∗ literature, ref [21],[22]; cited from earlier work
# Helicobacter pylori MTAN = Helicobacter pylori MTAN (Helicobacter pylori, UniProt Q9ZMY2); test: 2AMTA continuous fluorescence kinetic assay with hpMTAN; assay type: biochemical
# Human MTAP = target: T3, Human MTAP (Homo sapiens, UniProt Q13126); test: 2AMTA continuous fluorescence kinetic assay with hsMTAP; assay type: biochemical
# T3 sequence (Q13126 1-283): T1 sequence (Q13126 1-283)
# Yersinia pestis MTAN = assay type: biochemical
# [8] = tested on: Streptococcus pneumoniae MTAN; assay type: biochemical
# hsMTAP [9] = target: T1, hsMTAP; test: MTAP pre-steady-state stopped-flow kinetics; conditions: 10 μM 2AMTA, 5 μM MTAP
# Vibrio cholerae MTAN = Vibrio cholerae MTAN (Vibrio cholerae serotype O1, UniProt Q9KPI8); assay type: biochemical; conditions: enzyme concentration 1 μM, substrate concentration 1 mM
# Vibrio cholerae MTAN, sequence (Q9KPI8 whole entry): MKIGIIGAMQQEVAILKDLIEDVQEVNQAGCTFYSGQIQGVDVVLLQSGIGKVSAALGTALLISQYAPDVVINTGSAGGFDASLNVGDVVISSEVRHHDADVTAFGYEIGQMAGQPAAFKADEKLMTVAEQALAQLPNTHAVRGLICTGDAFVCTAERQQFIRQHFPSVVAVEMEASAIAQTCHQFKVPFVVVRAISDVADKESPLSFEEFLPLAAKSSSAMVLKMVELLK
# [10] = substrate 2AMTA, 100 mM potassium phosphate pH 7.4
molecule,measurement,setting,value
5′-methylthioadenosine [MTA],Km,ecMTAN,0.19 ± 0.02 µM
same,kcat,ecMTAN,2.3 ± 0.1 s⁻¹
same,Km,hsMTAP [1],5 ± 1 µM
same,kcat,hsMTAP [1],2.5 ± 0.7 s⁻¹
same,Km,hpMTAN [2],0.6 ± 0.3 µM
same,kcat,hpMTAN [2],12.1 ± 2.3 s⁻¹
"Nc1nc(N)c2[nH]cnc2n1 [2,6-diaminopurine]",fold decreased kcat compared to adenine,[3],~400 fold
same,fold increased KM compared to adenine,[3],approximately 2 fold
same,kcat/KM reduced by a factor compared to adenine,[3],800 fold
"CSC[C@H]1CN(Cc2c[nH]c3c(N)ncnc23)C[C@@H]1O [MT-DADMe-ImmA, Methylthio-DADMe-Immucillin-A]",Ki,hpMTAN [4],15 ± 1.4 pM
same,Ki,hpMTAN [5],89 ± 19 pM
same,Ki,hsMTAP [6],63 ± 10 pM
same,Ki,hsMTAP [7],90 ± 10 pM
2-amino-5′-methylthioadenosine [2AMTA],decrease of catalytic efficiency (kcat/KM) with 2AMTA relative to MTA,Helicobacter pylori MTAN,~10 fold
same,Km,Helicobacter pylori MTAN; [10],3.1 ± 0.5 µM
same,kcat,Helicobacter pylori MTAN; [10],7.0 ± 0.4 s⁻¹
same,decrease of catalytic efficiency (kcat/KM) with 2AMTA relative to MTA,Human MTAP,~10 fold
same,Km,Human MTAP; [10],34 ± 7 µM
same,kcat,Human MTAP; [10],1.7 ± 0.2 s⁻¹
same,Km,Yersinia pestis MTAN,11 ± 4.4 µM
same,kcat,"Yersinia pestis MTAN; substrate 2AMTA, Yersinia pestis MTAN",1.1 ± 0.28 s⁻¹
same,hydrolysis of 2AMTA,"[8]; enzyme concentration 1 μM, substrate concentration 1 mM",unable to hydrolyze 2AMTA at significant rates
same,kcat,"[8]; substrate 2AMTA, Streptococcus pneumoniae MTAN, 1 μM enzyme, 1 mM 2AMTA",<10^−5 s^−1
same,apparent turnover rate (pre-steady-state),hsMTAP [9],270 ± 1 s⁻¹
same,hydrolysis of 2AMTA,Vibrio cholerae MTAN,unable to hydrolyze 2AMTA at significant rates
"Nc1ncnc2c(CN3CC(CSc4ccc(Cl)cc4)[C@H](O)C3)c[nH]c12 (stereo partly drawn) [pCl-PhT-DADMe-ImmA, pCl-PhT-DADMe-Immucillin-A]",Ki,hpMTAN [4],360 ± 32 pM
same,Ki,hpMTAN [5],570 ± 90 pM
same,Ki,hsMTAP [6],47 ± 13 pM
same,Ki,hsMTAP [7],10 ± 5 pM
"CSCC1NC(c2c[nH]c3c(N)ncnc23)[C@@H](O)[C@H]1O (stereo partly drawn) [MT-ImmA, Methylthio-Immucillin-A]",Ki,hpMTAN [4],66 ± 11 pM
same,Ki,hpMTAN [5],40 ± 20 pM
same,Ki,hsMTAP [6],330 ± 68 pM
same,Ki,hsMTAP [7],1000 ± 500 pM
